Experimental data as given in US20230053540A1, “TREATMENT OF LIVER INJURY” (Massachusetts Institute of Technology, priority 2019, published 2023).

System: hepatocytes
Experiment: Seq-Well scRNA-Seq of hepatocytes after APAP overdose (signature scores, DEG vs untreated)
Assay type: in vivo, mouse
[1] = cluster A96 (APAP, 96 h) vs other clusters, Wilcox
[2] = cluster A96, DEG between treatment (APAP and PH)

`CC(=O)Nc1ccc(O)cc1` [APAP, acetaminophen] was tested, and the “avg_logFC Snx3” value (cluster A48 (APAP, 48 h)) was 0.2562, the “avg_logFC Sord” value (cluster A48 (APAP, 48 h)) was 0.3763 and the “avg_logFC St3gal5” value (cluster A48 (APAP, 48 h)) was 0.3766. For the same compound, the “avg_logFC Stbd1” value (cluster A48 (APAP, 48 h)) was 0.2667, the “avg_logFC Sult1a1” value (cluster A48 (APAP, 48 h)) was 0.3856 and the “avg_logFC Sult1d1” value (cluster A48 (APAP, 48 h)) was 0.5282. The “avg_logFC Syvn1” value (cluster A48 (APAP, 48 h)) was 0.2867, the “avg_logFC Tcea3” value (cluster A48 (APAP, 48 h)) was 0.3934 and the “avg_logFC Tef” value (cluster A48 (APAP, 48 h)) was 0.3162. The “avg_logFC Tmbim4” value (cluster A48 (APAP, 48 h)) was 0.3931, the “avg_logFC Tmbim6” value (cluster A48 (APAP, 48 h)) was 0.3567 and the “avg_logFC Tmem219” value (cluster A48 (APAP, 48 h)) was 0.2647. The “avg_logFC Ttc36” value (cluster A48 (APAP, 48 h)) was 0.6145, the “avg_logFC Ttpa” value (cluster A48 (APAP, 48 h)) was 0.4757 and the “avg_logFC Ttr” value (cluster A48 (APAP, 48 h)) was 0.4205. The “avg_logFC Ugt2b5” value (cluster A48 (APAP, 48 h)) was 0.6108, the “avg_logFC Ugt2b36” value (cluster A48 (APAP, 48 h)) was 0.3503 and the “avg_logFC Upb1” value (cluster A48 (APAP, 48 h)) was 0.3631. For the same compound, the “avg_logFC Usmg5” value (cluster A48 (APAP, 48 h)) was 0.4173, the “avg_logFC Vnn3” value (cluster A48 (APAP, 48 h)) was 0.3054 and the “avg_logFC Vtn” value (cluster A48 (APAP, 48 h)) was 0.3638. For the same compound, the “avg_logFC Yipf3” value (cluster A48 (APAP, 48 h)) was 0.2702, the “avg_logFC Zfp91” value (cluster A48 (APAP, 48 h)) was 0.3221 and the “pct.1, gene Abcc3” value (cluster A96) was 0.733. For the same compound, the “pct.1, gene Acaa1b” value (cluster A96) was 0.986, the “pct.1, gene Acat1” value (cluster A96) was 0.917 and the “pct.1, gene Acot1” value (cluster A96) was 0.459. For the same compound, the “pct.1, gene Agpat6” value (cluster A96) was 0.743, the “pct.1, gene Agt” value (cluster A96) was 0.912 and the “pct.1, gene Akr1d1” value (cluster A96) was 0.721. For the same compound, the “pct.1, gene Aldh9a1” value (cluster A96) was 0.884, the “pct.1, gene Aplp2” value (cluster A96) was 0.826 and the “pct.1, gene Apo17a” value (cluster A96) was 0.559. The “pct.1, gene Apoc2” value (cluster A96) was 0.901, the “pct.1, gene Aqp9” value (cluster A96) was 0.801 and the “pct.1, gene Arl4a” value (cluster A96) was 0.517. The “pct.1, gene Asl” value (cluster A96) was 0.896, the “pct.1, gene Baat” value (cluster A96) was 0.862 and the “pct.1, gene Bnip3” value (cluster A96) was 0.716. For the same compound, the “pct.1, gene Cd36” value (cluster A96) was 0.299, the “pct.1, gene Ces1e” value (cluster A96) was 0.71 and the “pct.1, gene Cox5a” value (cluster A96) was 0.813. For the same compound, the “pct.1, gene Cox6a1” value (cluster A96) was 0.943, the “pct.1, gene Cox8a” value (cluster A96) was 0.737 and the “pct.1, gene Cpeb4” value (cluster A96) was 0.527. The “pct.1, gene Cpox” value (cluster A96) was 0.634, the “pct.1, gene Cpt1a” value (cluster A96) was 0.837 and the “pct.1, gene Creg1” value (cluster A96) was 0.985. For the same compound, the “pct.1, gene Csad” value (cluster A96) was 0.843, the “pct.1, gene Ctage5” value (cluster A96) was 0.837 and the “pct.1, gene Cth” value (cluster A96) was 0.944. The “pct.1, gene Cxcl12” value (cluster A96) was 0.635, the “pct.1, gene D4Wsu53e” value (cluster A96) was 0.597 and the “pct.1, gene Decr2” value (cluster A96) was 0.813. For the same compound, the “pct.1, gene Dhdh” value (cluster A96) was 0.734, the “pct.1, gene Etfdh” value (cluster A96) was 0.811 and the “pct.1, gene Etnppl” value (cluster A96) was 0.677. The “pct.1, gene F5” value (cluster A96) was 0.858, the “pct.1, gene Fmo1” value (cluster A96) was 0.606 and the “pct.1, gene G0s2” value (cluster A96) was 0.525. The “pct.1, gene G6pc” value (cluster A96) was 0.86, the “pct.1, gene Gabarapl1” value (cluster A96) was 0.881 and the “pct.1, gene Gadd45b” value (cluster A96) was 0.452. For the same compound, the “pct.1, gene Gas5” value (cluster A96) was 0.68, the “pct.1, gene Gm4952” value (cluster A96) was 0.663 and the “pct.1, gene Gsta2” value (cluster A96) was 0.522. The “pct.1, gene Gstt3” value (cluster A96) was 0.541, the “pct.1, gene Gyk” value (cluster A96) was 0.616 and the “pct.1, gene Hmgcl” value (cluster A96) was 0.871. For the same compound, the “pct.1, gene Hmgcs1” value (cluster A96) was 0.858, the “pct.1, gene Hpgd” value (cluster A96) was 0.588 and the “pct.1, gene Hsd17b7” value (cluster A96) was 0.56. For the same compound, the “pct.1, gene Hsd17b10” value (cluster A96) was 0.841, the “pct.1, gene Igfbp1” value (cluster A96) was 0.826 and the “pct.1, gene Kif1b” value (cluster A96) was 0.686. For the same compound, the “pct.1, gene Lcat” value (cluster A96) was 0.886, the “pct.1, gene Mia3” value (cluster A96) was 0.81 and the “pct.1, gene Ndufa3” value (cluster A96) was 0.737. The “pct.1, gene Ndufa7” value (cluster A96) was 0.818, the “pct.1, gene Nr1i3” value (cluster A96) was 0.625 and the “pct.1, gene Oat” value (cluster A96) was 0.653. The “pct.1, gene Pon1” value (cluster A96) was 0.965, the “pct.1, gene Por” value (cluster A96) was 0.858 and the “pct.1, gene Ppp1r3b” value (cluster A96) was 0.536. The “pct.1, gene Ppp2r5a” value (cluster A96) was 0.764, the “pct.1, gene Ptms” value (cluster A96) was 0.806 and the “pct.1, gene Pxmp4” value (cluster A96) was 0.687. For the same compound, the “pct.1, gene Rdh16” value (cluster A96) was 0.494, the “pct.1, gene Rdx” value (cluster A96) was 0.824 and the “pct.1, gene Rgn” value (cluster A96) was 0.899. The “pct.1, gene Sc4mol” value (cluster A96) was 0.781, the “pct.1, gene Slc4a4” value (cluster A96) was 0.609 and the “pct.1, gene Slc25a20” value (cluster A96) was 0.671. The “pct.1, gene Slco1a4” value (cluster A96) was 0.507, the “pct.1, gene Snord118” value (cluster A96) was 0.564 and the “pct.1, gene Tgoln1” value (cluster A96) was 0.756. For the same compound, the “pct.1, gene Tmed5” value (cluster A96) was 0.714, the “pct.1, gene Tobi” value (cluster A96) was 0.649 and the “pct.1, gene Tsc22d3” value (cluster A96) was 0.534. The “pct.1, gene Zfp36l1” value (cluster A96) was 0.601, the “pct.1, gene Zfp91” value (cluster A96) was 0.693 and the “Acaa1b avg_logFC” value [1] was 0.282. For the same compound, the “Acat1 avg_logFC” value [1] was 0.2558, the “Acot1 avg_logFC” value [1] was 0.3106 and the “Agpat6 avg_logFC” value [1] was 0.3143. The “Agt avg_logFC” value [1] was 0.255, the “Akr1d1 avg_logFC” value [1] was 0.2994 and the “Aldh9a1 avg_logFC” value [1] was 0.2585. For the same compound, the “Apo17a avg_logFC” value [1] was 0.2518, the “Apoc2 avg_logFC” value [1] was 0.2781 and the “Aqp9 avg_logFC” value [1] was 0.3178. For the same compound, the “Arl4a avg_logFC” value [1] was 0.2706, the “Asl avg_logFC” value [1] was 0.275 and the “Baat avg_logFC” value [1] was 0.2728. The “Bnip3 avg_logFC” value [1] was 0.3208, the “Cd36 avg_logFC” value [1] was 0.3129 and the “Ces1e avg_logFC” value [1] was 0.2566. For the same compound, the “Cox5a avg_logFC” value [1] was 0.2728, the “Cox6a1 avg_logFC” value [1] was 0.2746 and the “Cox8a avg_logFC” value [1] was 0.2519. The “Cpeb4 avg_logFC” value [1] was 0.3011, the “Cpox avg_logFC” value [1] was 0.3229 and the “Cpt1a avg_logFC” value [1] was 0.2626. The “Creg1 avg_logFC” value [1] was 0.2517, the “Csad avg_logFC” value [1] was 0.4207 and the “Ctage5 avg_logFC” value [1] was 0.2535. For the same compound, the “Cth avg_logFC” value [1] was 0.2966, the “Cxcl12 avg_logFC” value [1] was 0.2822 and the “D4Wsu53e avg_logFC” value [1] was 0.2928. For the same compound, the “Decr2 avg_logFC” value [1] was 0.3018, the “Dhdh avg_logFC” value [1] was 0.2626 and the “Etfdh avg_logFC” value [1] was 0.2639. For the same compound, the “Etnppl avg_logFC” value [1] was 0.3154, the “Fmo1 avg_logFC” value [1] was 0.265 and the “G0s2 avg_logFC” value [1] was 0.2656. The “G6pc avg_logFC” value [1] was 0.2541, the “Gabarapl1 avg_logFC” value [1] was 0.2932 and the “Gadd45b avg_logFC” value [1] was 0.2598. The “Gas5 avg_logFC” value [1] was 0.2823, the “Gm4952 avg_logFC” value [1] was 0.2581 and the “Gsta2 avg_logFC” value [1] was 0.311. The “Gstt3 avg_logFC” value [1] was 0.3026, the “Gyk avg_logFC” value [1] was 0.3134 and the “Hmgcl avg_logFC” value [1] was 0.2744. For the same compound, the “Hmgcs1 avg_logFC” value [1] was 0.3251, the “Hpgd avg_logFC” value [1] was 0.3412 and the “Hsd17b7 avg_logFC” value [1] was 0.3028. The “Hsd17b10 avg_logFC” value [1] was 0.2802, the “Kif1b avg_logFC” value [1] was 0.2961 and the “Leaf avg_logFC” value [1] was 0.2616. The “Mia3 avg_logFC” value [1] was 0.2605, the “Ndufa3 avg_logFC” value [1] was 0.2743 and the “Ndufa7 avg_logFC” value [1] was 0.26. The “Nr1i3 avg_logFC” value [1] was 0.3481, the “Oat avg_logFC” value [1] was 0.4904 and the “Pon1 avg_logFC” value [1] was 0.2899. The “Ppp1r3b avg_logFC” value [1] was 0.251, the “Ppp2r5a avg_logFC” value [1] was 0.3505 and the “Ptms avg_logFC” value [1] was 0.2863. For the same compound, the “Pxmp4 avg_logFC” value [1] was 0.2555, the “Rdh16 avg_logFC” value [1] was 0.3477 and the “Sc4mol avg_logFC” value [1] was 0.3361. For the same compound, the “Slc4a4 avg_logFC” value [1] was 0.2977, the “Slc25a20 avg_logFC” value [1] was 0.2507 and the “Slco1a4 avg_logFC” value [1] was 0.3049. For the same compound, the “Snord118 avg_logFC” value [1] was 0.3782, the “Tgoln1 avg_logFC” value [1] was 0.2809 and the “Tmed5 avg_logFC” value [1] was 0.2523. For the same compound, the “Tobi avg_logFC” value [1] was 0.2958, the “Tsc22d3 avg_logFC” value [1] was 0.3362 and the “Zfp36l1 avg_logFC” value [1] was 0.2964. For the same compound, the “Zfp91 avg_logFC” value [1] was 0.2775, the “avg_logFC, gene Abcc3” value [2] was 0.2743 and the “avg_logFC, gene Acaa1b” value [2] was 0.282. For the same compound, the “avg_logFC, gene Acat1” value [2] was 0.2558, the “avg_logFC, gene Acot1” value [2] was 0.3106 and the “avg_logFC, gene Agpat6” value [2] was 0.3143. The “avg_logFC, gene Agt” value [2] was 0.255, the “avg_logFC, gene Akr1d1” value [2] was 0.2994 and the “avg_logFC, gene Aldh9a1” value [2] was 0.2585. For the same compound, the “avg_logFC, gene Aplp2” value [2] was 0.2903, the “avg_logFC, gene Apo17a” value [2] was 0.2518 and the “avg_logFC, gene Apoc2” value [2] was 0.2781. The “avg_logFC, gene Aqp9” value [2] was 0.3178, the “avg_logFC, gene Arl4a” value [2] was 0.2706 and the “avg_logFC, gene Asl” value [2] was 0.275. The “avg_logFC, gene Baat” value [2] was 0.2728, the “avg_logFC, gene Bnip3” value [2] was 0.3208 and the “avg_logFC, gene Cd36” value [2] was 0.3129. The “avg_logFC, gene Ces1e” value [2] was 0.2566, the “avg_logFC, gene Cox5a” value [2] was 0.2728 and the “avg_logFC, gene Cox6a1” value [2] was 0.2745. For the same compound, the “avg_logFC, gene Cox8a” value [2] was 0.2519, the “avg_logFC, gene Cpeb4” value [2] was 0.3011 and the “avg_logFC, gene Cpox” value [2] was 0.3229. For the same compound, the “avg_logFC, gene Cpt1a” value [2] was 0.2626, the “avg_logFC, gene Creg1” value [2] was 0.2517 and the “avg_logFC, gene Csad” value [2] was 0.4207. For the same compound, the “avg_logFC, gene Ctage5” value [2] was 0.2535, the “avg_logFC, gene Cth” value [2] was 0.2966 and the “avg_logFC, gene Cxcl12” value [2] was 0.2821. For the same compound, the “avg_logFC, gene D4Wsu53e” value [2] was 0.2928.
